Values quoted from earlier work in patent US20180085319A1, “METHODS AND COMPOSITIONS FOR TREATING CANCER” (priority 2016, published 2018).

Test system: anti-immunotoxin immune response

| Substance | prevention of anti-immunotoxin immune response in patients (B cell depletion) | effect on immune response to SS1P in mesothelioma patients (immunosuppressive treatment given with SS1P) |
| --- | --- | --- |
| Rituximab | ineffective in preventing anti-immunotoxin immune response | – |
| cyclophosphamide and pentostatin [cyclophosphamide and pentostatin (CP/PS)] | – | only delayed the response to the immunotoxin |
